# According to ChEMBL document CHEMBL3804786, “Novel 1,3-thiazolidin-4-one derivatives as promising anti-Candida agents endowed with anti-oxidant and chelating properties” (Eur J Med Chem, 2016):
# Key:
# [1] = test system: Nakaseomyces glabratus; assay: Antifungal activity against Candida glabrata clinical isolate after 24 hrs by broth microdilution method; assay type: functional
# [2] = test system: Escherichia coli; assay: Antibacterial activity against Escherichia coli after clinical isolate 18 to 22 hrs by broth microdilution method; assay type: functional
# [3] = test system: Candida parapsilosis; assay: Antifungal activity against Candida parapsilosis clinical isolate after 24 hrs by broth microdilution method; assay type: functional; details: Lodderomyces parapsilosis
# [4] = test system: Candida tropicalis; assay: Antifungal activity against Candida tropicalis clinical isolate after 24 hrs by broth microdilution method; assay type: functional
# [5] = test system: [Candida] sake; assay: Antifungal activity against Candida sake clinical isolate after 24 hrs by broth microdilution method; assay type: functional; details: Fermentozyma sake
# [6] = test system: Streptococcus sp. (viridans group); assay: Antibacterial activity against Streptococcus alpha-hemolyticus clinical isolate after 18 to 22 hrs by broth microdilution method
# [7] = test system: Staphylococcus aureus; assay: Antibacterial activity against Staphylococcus aureus clinical isolate after 18 to 22 hrs by broth microdilution method; assay type: functional
# [8] = test system: Staphylococcus warneri; assay: Antibacterial activity against Staphylococcus warneri clinical isolate after 18 to 22 hrs by broth microdilution method; assay type: functional
# [9] = test system: Candida albicans; assay: Antifungal activity against Candida albicans clinical isolate after 24 hrs by broth microdilution method; assay type: functional
# [10] = test system: Pichia kudriavzevii; assay: Antifungal activity against Candida krusei clinical isolate after 24 hrs by broth microdilution method; assay type: functional
# [11] = test system: Enterobacter sp.; assay: Antibacterial activity against Enterobacter spp. clinical isolate after 18 to 22 hrs by broth microdilution method; assay type: functional
# [12] = test system: Proteus mirabilis; assay: Antibacterial activity against Proteus mirabilis clinical isolate after 18 to 22 hrs by broth microdilution method; assay type: functional
# [13] = test system: Enterococcus faecalis; assay: Antibacterial activity against Streptococcus faecalis clinical isolate after 18 to 22 hrs by broth microdilution method; assay type: functional
# [14] = test system: Klebsiella oxytoca; assay: Antibacterial activity against Klebsiella oxytoca clinical isolate after 18 to 22 hrs by broth microdilution method; assay type: functional
# [15] = Cytotoxicity against human Hep2 cells assessed as cell survival at 50 ug/ml after 24 hrs by trypan blue exclusion assay; assay type: cell-based, HEp-2; details: read-out: Survival
# [16] = Antioxidant activity assessed as DPPH radical scavenging activity after 30 mins under dark conditions; assay type: physicochemical
# [17] = Antioxidant activity assessed as ABTS radical scavenging activity after 30 mins under dark conditions; assay type: physicochemical
# [18] = Antioxidant activity of the compound after 90 mins by phosphomolybdenum assay; assay type: physicochemical
# [19] = Cytotoxicity against human Hep2 cells assessed as cell survival at 0.5 ug/ml after 24 hrs by trypan blue exclusion assay; assay type: cell-based, HEp-2; details: read-out: Survival
# [20] = Metal chelating activity of the compound assessed as ferrous ion complex formation after 10 mins; assay type: physicochemical
# [21] = Cytotoxicity against human Hep2 cells assessed as cell survival at 0.05 ug/ml after 24 hrs by trypan blue exclusion assay; assay type: cell-based, HEp-2; details: read-out: Survival
# [22] = Cytotoxicity against human Hep2 cells assessed as reduction in cell viability after 24 hrs by trypan blue exclusion assay; assay type: cell-based, HEp-2
# [23] = Cytotoxicity against human Hep2 cells assessed as cell survival at 10 ug/ml after 24 hrs by trypan blue exclusion assay; assay type: cell-based, HEp-2; details: read-out: Survival
# [24] = Antioxidant activity of the compound after 30 mins by FRAP assay; assay type: physicochemical
# [25] = Antioxidant activity of the compound after 30 mins by CUPRAC method; assay type: physicochemical
# [26] = Cytotoxicity against human Hep2 cells assessed as cell survival at 5 ug/ml after 24 hrs by trypan blue exclusion assay; assay type: cell-based, HEp-2; details: read-out: Survival
Compound,MIC [1] [µg/mL],MIC [2] [µg/mL],MIC [3] [µg/mL],MIC [4] [µg/mL],MIC [5] [µg/mL],MIC [6] [µg/mL],MIC [7] [µg/mL],MIC [8] [µg/mL],MIC [9] [µg/mL],MIC [10] [µg/mL],MIC [11] [µg/mL],MIC [12] [µg/mL],MIC [13] [µg/mL],MIC [14] [µg/mL],IC50 [16] [µM],IC50 [17] [µM],EC50 [18] [µM],IC50 [20] [µM],EC50 [24] [µM],EC50 [25] [µM],further results
C/C(=N/N=C1\SCC(=O)N1Cc1ccc(Cl)cc1)c1cccs1,2,> 256,4,8,8,> 256,> 256,> 256,4,8,> 256,> 256,> 256,> 256,,,,,,,
C/C(=N\N=C1/SCC(=O)N1Cc1cccc(Cl)c1)c1ccccn1,2,> 256,2,2,16,> 256,> 256,> 256,2,4,> 256,> 256,> 256,> 256,> 5000,26800,2040,2760,4930,1400,"viability at 24 h, 50 ug/ml [15]: 0%; viability at 24 h, 0.5 ug/ml [19]: 87.5%; viability at 24 h, 0.05 ug/ml [21]: 94%; CC50 at 24 h [22]: 21 µg/mL; viability at 24 h, 10 ug/ml [23]: 69%; viability at 24 h, 5 ug/ml [26]: 85%"
C/C(=N/N=C1\SCC(=O)N1Cc1ccc(Cl)cc1)c1ccccn1,4,> 256,4,8,8,> 256,> 256,> 256,8,8,> 256,> 256,> 256,> 256,,,,,,,
C/C(=N\N=C1/SCC(=O)N1Cc1ccccc1F)c1cccs1,4,> 256,4,2,2,> 256,> 256,> 256,2,4,> 256,> 256,> 256,> 256,> 5000,15700,1260,3840,2130,2400,"viability at 24 h, 50 ug/ml [15]: 0%; viability at 24 h, 0.5 ug/ml [19]: 80%; viability at 24 h, 0.05 ug/ml [21]: 91%; CC50 at 24 h [22]: 15 µg/mL; viability at 24 h, 10 ug/ml [23]: 41%; viability at 24 h, 5 ug/ml [26]: 62%"
C/C(=N/N=C1\SCC(=O)N1Cc1ccc(F)cc1)c1cccs1,2,> 256,4,2,8,> 256,> 256,> 256,2,2,> 256,> 256,> 256,> 256,> 5000,21500,1370,3900,2020,1850,"viability at 24 h, 50 ug/ml [15]: 0%; viability at 24 h, 0.5 ug/ml [19]: 76%; viability at 24 h, 0.05 ug/ml [21]: 83%; CC50 at 24 h [22]: 15 µg/mL; viability at 24 h, 10 ug/ml [23]: 52%; viability at 24 h, 5 ug/ml [26]: 68%"
C/C(=N\N=C1/SCC(=O)N1Cc1cccc(Cl)c1)c1cccs1,2,> 256,2,2,2,> 256,> 256,> 256,2,2,> 256,> 256,> 256,> 256,> 5000,20300,1160,1640,2320,1590,"viability at 24 h, 50 ug/ml [15]: 0%; viability at 24 h, 0.5 ug/ml [19]: 89%; viability at 24 h, 0.05 ug/ml [21]: 94%; CC50 at 24 h [22]: 21 µg/mL; viability at 24 h, 10 ug/ml [23]: 63%; viability at 24 h, 5 ug/ml [26]: 82%"
Nc1ccc(CN2C(=O)CS/C2=N\N=C2CCCC2)cc1,16,> 256,64,32,256,> 256,> 256,> 256,2,16,> 256,> 256,> 256,> 256,,,,,,,
CC(C)=N/N=C1\SCC(=O)N1Cc1ccc(N)cc1,1,> 256,2,32,4,> 256,> 256,> 256,4,2,> 256,> 256,> 256,> 256,> 5000,2040,1200,> 5000,2760,1770,
